Laboratory results from patent US11802120B2, “Fused cyclic urea derivatives as CRHR2 antagonist” (RaQualia Pharma Inc., priority 2018, dated 2023).
pIC50: −log10 of the molar value.

Target: T1, human CRHR2-alpha (Homo sapiens, UniProt Q13324)
T1 sequence (Q13324 1-411): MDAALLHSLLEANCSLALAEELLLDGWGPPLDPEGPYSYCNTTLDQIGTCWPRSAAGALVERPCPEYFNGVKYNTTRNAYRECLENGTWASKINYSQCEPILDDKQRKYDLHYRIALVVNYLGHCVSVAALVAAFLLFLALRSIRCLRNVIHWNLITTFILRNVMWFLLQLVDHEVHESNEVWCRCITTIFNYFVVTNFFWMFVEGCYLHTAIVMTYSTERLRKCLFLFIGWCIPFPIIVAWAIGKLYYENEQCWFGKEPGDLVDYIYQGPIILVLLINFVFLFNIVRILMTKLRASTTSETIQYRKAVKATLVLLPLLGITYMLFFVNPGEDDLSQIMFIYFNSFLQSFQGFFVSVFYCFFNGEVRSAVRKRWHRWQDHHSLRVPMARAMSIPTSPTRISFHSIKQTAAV
Experiment: cAMP functional assay for human CRHR2 (LANCE Ultra cAMP, TR-FRET)
Type: cell-based
Conditions: CHO-K1 cells expressing human CRHR2-alpha, agonist human urocortin2 at EC80, cAMP; read-out: IC50 against CRHR2
Experimental: cAMP functional assay for human CRHR1 and CRHR2
The ability of the compounds of this invention to inhibit either CRHR2 or CRHR1 is assessed by 3′,5′-cyclic adenosine monophosphate (cAMP) production in cells using the LANCE Ultra cAMP assay kit (ParkinElmer), which are designed based on the homogeneous time-resolved fluorescence resonance energy transfer (TR-FRET) immunoassay.
CHO-K1 (Chinese hamster ovary) cells stably expressing either human CRHR2-alpha (DiscoveRX, Cat. 95-0048C2) or human CRHR1-beta (DiscoveRX, Cat. 95-0047C2) are grown in HAM's F12 media supplemented with 10% fetal bovine serum (FBS), 100 units/mL penicillin, 100 microg/mL hygromycin and 0.5 microg/mL geneticin at 37° C. in 5% CO2 humidified incubator to 80% confluence. After 7 hours starvation treatment in culture media containing 0.1% FBS, the cells are washed with Hanks balanced salt solution (HBSS) and cryopreserved.
For cAMP assay, frozen cells are thawed and washed with HBSS, followed by resuspended in assay buffer (HBSS containing 0.1% bovine serum albumin, 0.5 mM isobutylmethylxanthine and 5 mM Hepes, pH 7.4) at the appropriate concentration for the assay. The cell suspensions are plated on 384-well microplates (Greiner Bio-One) at a density of 4,000 cells per well. After preincubating the cells with various concentrations of the compounds for 30 min at 25° C., an assay buffer containing EC80 concentration of each agonist is added and the cells are incubated for 30 min at 25° C. Human urocortin2 (Peptide Institute) and CRF (Peptide Institute) are used as agonists for CRHR2 and CRHR1, respectively. For the termination of assay, europium-labeled cAMP tracer and ULight (registered trademark) dye labeled cAMP antibodies, both prepared with Lance-Ultra cAMP detection reagent (Perkin Elmer) are added in the plate and incubate for 60 min at 25° C. After incubation, TR-FRET signal is detected by EnVision plate reader (PerkinElmer). The IC50 values for compounds are calculated from dose-response curves by fitting the percent inhibition using XLfit (ID Business Solutions).

| SMILES | pIC50 |
| --- | --- |
| COc1cc(-n2c(=O)n(C[C@H]3CC[C@H](NC(=O)c4cc(Cl)cnc4C)CC3)c3ccccc32)cnc1OC [Example 118, 5-chloro-N-((1r,4r)-4-((3-(5,6-dimethoxypyridin-3-yl)-2-oxo-2,3-dihydro-1H-benzo[d]imidazol-1-yl)methyl)cyclo-hexyl)-2-methylnicotinamide] | > 6.52 |
| Cc1cc(-n2c(=O)n(C[C@H]3CC[C@H](NC(=O)c4cc(Cl)cnc4C)CC3)c3ccccc32)cnc1C [Example 119, 5-chloro-N-((1r,4r)-4-((3-(5,6-dimethylpyridin-3-yl)-2-oxo-2,3-dihydro-1H-benzo[d]imidazol-1-yl)methyl)cyclo-hexyl)-2-methylnicotinamide] | > 6.52 |
| COc1ncc(-n2c(=O)n(C[C@H]3CC[C@H](NC(=O)c4cc(Cl)cnc4C)CC3)c3ccccc32)cc1C [Example 120, 5-chloro-N-((1r,4r)-4-((3-(6-methoxy-5-methylpyridin-3-yl)-2-oxo-2,3-dihydro-1H-benzo[d]imidazol-1-yl)methyl)cyclohexyl)-2-methylnicotinamide] | > 6.52 |
| Cc1ccc(-n2c(=O)n(C[C@H]3CC[C@H](NC(=O)c4cc(Cl)cnc4C)CC3)c3cccc(F)c32)cn1 [Example 121, 5-chloro-N-((1r,4r)-4-((4-fluoro-3-(6-methylpyridin-3-yl)-2-oxo-2,3-dihydro-1H-benzo[d]imidazol-1-yl)methyl)cyclo-hexyl)-2-methylnicotinamide] | > 6.52 |
| Cc1ccc(-n2c(=O)n(C[C@H]3CC[C@H](NC(=O)c4cc(Cl)cnc4C)CC3)c3ccc(F)cc32)cn1 [Example 122, 5-chloro-N-((1r,4r)-4-((5-fluoro-3-(6-methylpyridin-3-yl)-2-oxo-2,3-dihydro-1H-benzo[d]imidazol-1-yl)methyl)cyclo-hexyl)-2-methylnicotinamide] | > 6.52 |
| Cc1ccc(-n2c(=O)n(C[C@H]3CC[C@H](NC(=O)c4cc(Cl)cnc4C)CC3)c3cc(F)ccc32)cn1 [Example 123, 5-chloro-N-((1r,4r)-4-((6-fluoro-3-(6-methylpyridin-3-yl)-2-oxo-2,3-dihydro-1H-benzo[d]imidazol-1-yl)methyl)cyclo-hexyl)-2-methylnicotinamide] | > 6.52 |
| Cc1ccc(-n2c(=O)n(C[C@H]3CC[C@H](NC(=O)c4cc(Cl)cnc4C)CC3)c3c(F)cccc32)cn1 [Example 124, 5-chloro-N-((1r,4r)-4-((7-fluoro-3-(6-methylpyridin-3-yl)-2-oxo-2,3-dihydro-1H-benzo[d]imidazol-1-yl)methyl)cyclo-hexyl)-2-methylnicotinamide] | > 6.52 |
| Cc1ncc(Cl)cc1C(=O)N[C@H]1CC[C@H](Cn2c(=O)n(-c3ccc(NC4CCC4)nc3)c3ccccc32)CC1 [Example 125, 5-chloro-N-((1r,4r)-4-((3-(6-(cyclobutylamino)pyridin-3-yl)-2-oxo-2,3-dihydro-1H-benzo[d]imidazol-1-yl)methyl)cyclo-hexyl)-2-methylnicotinamide] | > 6.52 |
| COC1CCN(c2ccc(-n3c(=O)n(C[C@H]4CC[C@H](NC(=O)c5cc(Cl)cnc5C)CC4)c4ccccc43)cn2)CC1 [Example 126, 5-chloro-N-((1r,4r)-4-((3-(6-(4-methoxypiperidin-1-yl)pyridin-3-yl)-2-oxo-2,3-di-hydro-1H-benzo[d]imidazol-1-yl)methyl)cyclohexyl)-2-methylnicotinamide] | > 6.52 |
| Cc1ccc(-n2c(=O)n(C[C@H]3CC[C@H](NC(=O)c4cc(Cl)cnc4C)CC3)c3ccccc32)cc1CO [Example 127, 5-chloro-N-((1r,4r)-4-((3-(3-(hydroxymethyl)-4-methylphenyl)-2-oxo-2,3-dihydro-1H-benzo[d]imidazol-1-yl)methyl)cyclo-hexyl)-2-methylnicotinamide] | > 6.52 |
| Cc1ncc(Cl)cc1C(=O)N[C@H]1CC[C@H](Cn2c(=O)n(-c3ccc(C(=O)NC4COC4)cc3)c3ccccc32)CC1 [Example 130, 5-chloro-2-methyl-N-((1r,4r)-4-((3-(4-(oxetan-3-ylcarbamoyl)phenyl)-2-oxo-2,3-dihydro-1H-benzo[d]imidazol-1-yl)methyl)cyclohexyl)nicotinamide] | > 6.52 |
| CNc1ncc(-n2c(=O)n(C[C@H]3CC[C@H](NC(=O)c4cc(Cl)cnc4C)CC3)c3ccccc32)cc1C [Example 133, 5-chloro-2-methyl-N-((1r,4r)-4-((3-(5-methyl-6-(methyl-amino)pyridin-3-yl)-2-oxo-2,3-dihydro-1H-benzo[d]imidazol-1-yl)methyl)cyclohexyl) nicotinamide] | > 6.52 |
| Cc1ncc(Cl)cc1C(=O)N[C@H]1CC[C@H](Cn2c(=O)n(-c3ccc(OCCCO)nc3)c3ccccc32)CC1 [Example 134, 5-chloro-N-((1r,4r)-4-((3-(6-(3-hydroxypropoxy)pyridin-3-yl)-2-oxo-2,3-dihydro-1H-benzo[d]imidazol-1-yl)methyl)cyclohexyl)-2-methylnicotinamide] | > 6.52 |
| Cc1ncc(Cl)cc1C(=O)N[C@H]1CC[C@H](Cn2c(=O)n(-c3ccc(OC4COC4)nc3)c3ccccc32)CC1 [Example 140, 5-chloro-2-methyl-N-((1r,4r)-4-((3-(6-(oxetan-3-yloxy)pyridin-3-yl)-2-oxo-2,3-dihydro-1H-benzo[d]imidazol-1-yl)methyl)cyclohexyl)nicotinamide] | > 6.52 |
| Cc1ncc(Cl)cc1C(=O)N[C@H]1CC[C@H](Cn2c(=O)n(-c3ccc4c(cnn4C)c3)c3ccccc32)CC1 [Example 141, 5-chloro-2-methyl-N-((1r,4r)-4-((3-(1-methyl-1H-indazol-5-yl)-2-oxo-2,3-dihydro-1H-benzo [d]imidazol-1-yl)methyl)cyclohexyl)nicotinamide] | > 6.52 |
| COC1CN(c2ccc(-n3c(=O)n(C[C@H]4CC[C@H](NC(=O)c5cc(Cl)cnc5C)CC4)c4ccccc43)cn2)C1 [Example 144, 5-chloro-N-((1r,4r)-4-((3-(6-(3-methoxyazetidin-1-yl)pyridin-3-yl)-2-oxo-2,3-dihydro-1H-benzo[d]imidazol-1-yl)methyl)cyclohexyl)-2-methylnicotinamide] | > 6.52 |
| Cc1ncc(Cl)cc1C(=O)N[C@H]1CC[C@H](Cn2c(=O)n(-c3ccc(N4CC(F)C4)nc3)c3ccccc32)CC1 [Example 145, 5-chloro-N-((1r,4r)-4-((3-(6-(3-fluoroazetidin-1-yl)pyridin-3-yl)-2-oxo-2,3-dihydro-1H-benzo[d]imidazol-1-yl)methyl)cyclo-hexyl)-2-methylnicotinamide] | > 6.52 |
| Cc1ncc(Cl)cc1C(=O)N[C@H]1CC[C@H](Cn2c(=O)n(-c3ccc(N4CC(F)(F)C4)nc3)c3ccccc32)CC1 [Example 146, 5-chloro-N-((1r,4r)-4-((3-(6-(3,3-difluoroazetidin-1-yl)pyridin-3-yl)-2-oxo-2,3-dihydro-1H-benzo[d]imidazol-1-yl)methyl)cyclo-hexyl)-2-methylnicotinamide] | > 6.52 |
| Cc1ncc(Cl)cc1C(=O)N[C@H]1CC[C@H](Cn2c(=O)n(-c3ccc(NC4COC4)nc3)c3ccccc32)CC1 [Example 147, 5-chloro-2-methyl-N-((1r,4r)-4-((3-(6-(oxetan-3-ylamino)pyridin-3-yl)-2-oxo-2,3-dihydro-1H-benzo[d]imidazol-1-yl)methyl)cyclo-hexyl)nicotinamide] | > 6.52 |
| COc1ccc(-n2c(=O)n(C[C@H]3CC[C@H](NC(=O)c4cc(Cl)cnc4C)CC3)c3ccccc32)c(C)n1 [Example 149, 5-chloro-N-((1r,4r)-4-((3-(6-methoxy-2-methylpyridin-3-yl)-2-oxo-2,3-dihydro-1H-benzo[d]imidazol-1-yl)methyl)cyclohexyl)-2-methylnicotinamide] | > 6.52 |
| CNc1ccc(-n2c(=O)n(C[C@H]3CC[C@H](NC(=O)c4cc(Cl)cnc4C)CC3)c3ccccc32)c(C)n1 [Example 150, 5-chloro-2-methyl-N-((1r,4r)-4-((3-(2-methyl-6-(methylamino)pyridin-3-yl)-2-oxo-2,3-dihydro-1H-benzo[d]imidazol-1-yl)methyl)cyclohexyl)nicotinamide] | > 6.52 |
